Assay results from patent publication US20230085307A1, “PYRIDAZINONE COMPOUND AND HERBICIDE” (NISSAN CHEMICAL CORPORATION, priority 2019, published 2023).

Tests used:
[1] = test system: late watergrass; test: Test Example 1: herbicidal activity, application before weed generation under submerged conditions (Table 16, symbol A); assay type: in vivo, late watergrass (Echinochloa oryzicola); details: 320 g/ha applied herbicide
Summary of the method: (§1)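 Alluvial soil was flooded to 4 cm depth, weed seeds were sown mixed and 2.5-leaf rice seedlings were transplanted. On sowing day, the compound's emulsion, diluted in water to a set dose, was applied to the water surface. Plants grew at 25–30 °C and were scored 0–5 after three weeks.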

[2] = test system: barnyard grass; test: Test Example 3: herbicidal effect by foliage application, Wagner pot (Table 18, symbol H); assay type: in vivo, barnyard grass (Echinochloa crus-galli); details: amount of applied herbicide 320 g/ha
Summary of the method: (§2)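 Plants were sown in alluvial soil held under 0.1–0.5 cm standing water and grown 14 days in a greenhouse at 25–30 °C. An emulsifiable formulation, water-diluted to the set dose, was then sprayed onto the foliage, and effects were scored three weeks later using previously defined criteria.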

[3] = test system: barnyard grass; test: Test Example 5: herbicidal effect by foliage application, plastic box (Table 20, symbol H); assay type: in vivo, barnyard grass (Echinochloa crus-galli); details: foliage application, AAH 320 g/ha, evaluated three weeks after application
Summary of the method: (§3)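 Post-emergence foliar test in sterilized diluvial soil. Compound applied as water-diluted emulsion at a predetermined rate to 14-day-old plants; evaluation at three weeks.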

[4] = test system: barnyard grass; test: Test Example 4: herbicidal effect by soil treatment (Table 19, symbol H); assay type: in vivo, barnyard grass (Echinochloa crus-galli); details: amount of applied herbicide 320 g/ha
Summary of the method: (§4)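 Emulsion of test compound, water-diluted to predetermined amount, sprayed on soil after sowing (seed depth ~1.5 cm, sterilized diluvial soil). Greenhouse, 25–30° C. Effect graded at three weeks post-spray.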

[5] = test system: wild oat; test: Test Example 5: herbicidal effect by foliage application, plastic box (Table 20, symbol I); assay type: in vivo, wild oat (Avena fatua); details: foliage application, AAH 320 g/ha, evaluated three weeks after application
Summary of the method: as §3

[6] = test system: velvetleaf; test: Test Example 4: herbicidal effect by soil treatment (Table 19, symbol M); assay type: in vivo, velvetleaf (Abutilon theophrasti); details: amount of applied herbicide 320 g/ha
Summary of the method: as §4

[7] = test system: persian speedwell; test: Test Example 5: herbicidal effect by foliage application, plastic box (Table 20, symbol R); assay type: in vivo, Persian speedwell (Veronica persica); details: foliage application, AAH 320 g/ha, evaluated three weeks after application
Summary of the method: as §3

[8] = test system: windgrass; test: Test Example 5: herbicidal effect by foliage application, plastic box (Table 20, symbol L); assay type: in vivo, windgrass (Apera spica-venti); details: foliage application, AAH 320 g/ha, evaluated three weeks after application
Summary of the method: as §3

[9] = test system: Italian ryegrass; test: Test Example 4: herbicidal effect by soil treatment (Table 19, symbol K); assay type: in vivo, Italian ryegrass (Lolium multiflorum); details: amount of applied herbicide 320 g/ha
Summary of the method: as §4

[10] = test system: lambsquarters; test: Test Example 5: herbicidal effect by foliage application, plastic box (Table 20, symbol O); assay type: in vivo, lambsquarters (Chenopodium album); details: foliage application, AAH 320 g/ha, evaluated three weeks after application
Summary of the method: as §3

[11] = test system: velvetleaf; test: Test Example 5: herbicidal effect by foliage application, plastic box (Table 20, symbol M); assay type: in vivo, velvetleaf (Abutilon theophrasti); details: foliage application, AAH 320 g/ha, evaluated three weeks after application
Summary of the method: as §3

[12] = test system: redroot pigweed; test: Test Example 4: herbicidal effect by soil treatment (Table 19, symbol N); assay type: in vivo, redroot pigweed (Amaranthus retroflexus); details: amount of applied herbicide 320 g/ha
Summary of the method: as §4

[13] = test system: chickweed; test: Test Example 5: herbicidal effect by foliage application, plastic box (Table 20, symbol P); assay type: in vivo, common chickweed (Stellaria media); details: foliage application, AAH 320 g/ha, evaluated three weeks after application
Summary of the method: as §3

[14] = test system: redroot pigweed; test: Test Example 5: herbicidal effect by foliage application, plastic box (Table 20, symbol N); assay type: in vivo, redroot pigweed (Amaranthus retroflexus); details: foliage application, AAH 320 g/ha, evaluated three weeks after application
Summary of the method: as §3

[15] = test system: Chinese sprangletop; test: Test Example 3: herbicidal effect by foliage application, Wagner pot (Table 18, symbol D); assay type: in vivo, chinese sprangletop (Leptochloa chinensis); details: amount of applied herbicide 320 g/ha
Summary of the method: as §2

[16] = test system: oval-leafed pondweed; test: Test Example 1: herbicidal activity, application before weed generation under submerged conditions (Table 16, symbol C); assay type: in vivo, oval-leafed pondweed (Monochoria vaginalis); details: 320 g/ha applied herbicide
Summary of the method: as §1

[17] = test system: blackgrass; test: Test Example 5: herbicidal effect by foliage application, plastic box (Table 20, symbol J); assay type: in vivo, blackgrass (Alopecurus myosuroides); details: foliage application, AAH 320 g/ha, evaluated three weeks after application
Summary of the method: as §3

[18] = test system: blackgrass; test: Test Example 4: herbicidal effect by soil treatment (Table 19, symbol J); assay type: in vivo, blackgrass (Alopecurus myosuroides); details: amount of applied herbicide 320 g/ha
Summary of the method: as §4

[19] = test system: chickweed; test: Test Example 4: herbicidal effect by soil treatment (Table 19, symbol P); assay type: in vivo, common chickweed (Stellaria media); details: amount of applied herbicide 320 g/ha
Summary of the method: as §4

[20] = test system: persian speedwell; test: Test Example 4: herbicidal effect by soil treatment (Table 19, symbol R); assay type: in vivo, Persian speedwell (Veronica persica); details: amount of applied herbicide 320 g/ha
Summary of the method: as §4

[21] = test system: wild oat; test: Test Example 4: herbicidal effect by soil treatment (Table 19, symbol I); assay type: in vivo, wild oat (Avena fatua); details: amount of applied herbicide 320 g/ha
Summary of the method: as §4

[22] = test system: false cleavers; test: Test Example 4: herbicidal effect by soil treatment (Table 19, symbol Q); assay type: in vivo, false cleavers (Galium spurium); details: amount of applied herbicide 320 g/ha
Summary of the method: as §4

[23] = test system: Japanese bulrush; test: Test Example 1: herbicidal activity, application before weed generation under submerged conditions (Table 16, symbol B); assay type: in vivo, Japanese bulrush (Schoenoplectus juncoides); details: 320 g/ha applied herbicide
Summary of the method: as §1

[24] = test system: green foxtail; test: Test Example 5: herbicidal effect by foliage application, plastic box (Table 20, symbol G); assay type: in vivo, green foxtail (Setaria viridis); details: foliage application, AAH 320 g/ha, evaluated three weeks after application
Summary of the method: as §3

[25] = test system: southern crabgrass; test: Test Example 5: herbicidal effect by foliage application, plastic box (Table 20, symbol F); assay type: in vivo, southern crabgrass (Digitaria ciliaris); details: foliage application, AAH 320 g/ha, evaluated three weeks after application
Summary of the method: as §3

[26] = test system: windgrass; test: Test Example 4: herbicidal effect by soil treatment (Table 19, symbol L); assay type: in vivo, windgrass (Apera spica-venti); details: amount of applied herbicide 320 g/ha
Summary of the method: as §4

[27] = test system: rice flat sedge; test: Test Example 3: herbicidal effect by foliage application, Wagner pot (Table 18, symbol E); assay type: in vivo, rice flat sedge (Cyperus iria); details: amount of applied herbicide 320 g/ha
Summary of the method: as §2

[28] = test system: green foxtail; test: Test Example 4: herbicidal effect by soil treatment (Table 19, symbol G); assay type: in vivo, green foxtail (Setaria viridis); details: amount of applied herbicide 320 g/ha
Summary of the method: as §4

[29] = test system: southern crabgrass; test: Test Example 4: herbicidal effect by soil treatment (Table 19, symbol F); assay type: in vivo, southern crabgrass (Digitaria ciliaris); details: amount of applied herbicide 320 g/ha
Summary of the method: as §4

[30] = test system: Italian ryegrass; test: Test Example 5: herbicidal effect by foliage application, plastic box (Table 20, symbol K); assay type: in vivo, Italian ryegrass (Lolium multiflorum); details: foliage application, AAH 320 g/ha, evaluated three weeks after application
Summary of the method: as §3

[31] = test system: lambsquarters; test: Test Example 4: herbicidal effect by soil treatment (Table 19, symbol O); assay type: in vivo, lambsquarters (Chenopodium album); details: amount of applied herbicide 320 g/ha
Summary of the method: as §4

Structure (SMILES): CSCCSCc1ccc(-c2sc3ccc(F)cc3c2-c2c(O)c(C)nn(C)c2=O)cc1 [2-329]
- Herbicidal effect on A: late watergrass (grade 0-5) [1]: 2 (Herbicidal rate of 20% or more and less than 40%)
- herbicidal effect on H: barnyard grass [2]: 5 (Herbicidal rate of 90% or more (almost completely withered))
- H: barnyard grass, herbicidal effect (criteria 0-5) [3]: 4 (Herbicidal rate of 70% or more and less than 90%)
- herbicidal effect on H: barnyard grass [4]: 0 (Herbicidal rate of 5% or less (almost no effect))
- I: wild oat, herbicidal effect (criteria 0-5) [5]: 3 (Herbicidal rate of 40% or more and less than 70%)
- herbicidal effect on M: velvetleaf [6]: 0 (Herbicidal rate of 5% or less (almost no effect))
- R: persian speedwell, herbicidal effect (criteria 0-5) [7]: 5 (Herbicidal rate of 90% or more (almost completely withered))
- L: windgrass, herbicidal effect (criteria 0-5) [8]: 5 (Herbicidal rate of 90% or more (almost completely withered))
- herbicidal effect on K: Italian ryegrass [9]: 0 (Herbicidal rate of 5% or less (almost no effect))
- O: lambsquarters, herbicidal effect (criteria 0-5) [10]: 4 (Herbicidal rate of 70% or more and less than 90%)
- M: velvetleaf, herbicidal effect (criteria 0-5) [11]: 5 (Herbicidal rate of 90% or more (almost completely withered))
- herbicidal effect on N: redroot pigweed [12]: 3 (Herbicidal rate of 40% or more and less than 70%)
- P: chickweed, herbicidal effect (criteria 0-5) [13]: 5 (Herbicidal rate of 90% or more (almost completely withered))
- N: redroot pigweed, herbicidal effect (criteria 0-5) [14]: 5 (Herbicidal rate of 90% or more (almost completely withered))
- herbicidal effect on D: Chinese sprangletop [15]: 4 (Herbicidal rate of 70% or more and less than 90%)
- Herbicidal effect on C: oval-leafed pondweed (grade 0-5) [16]: 0 (Herbicidal rate of 5% or less (almost no effect))
- J: blackgrass, herbicidal effect (criteria 0-5) [17]: 4 (Herbicidal rate of 70% or more and less than 90%)
- herbicidal effect on J: blackgrass [18]: 0 (Herbicidal rate of 5% or less (almost no effect))
- herbicidal effect on P: chickweed [19]: 0 (Herbicidal rate of 5% or less (almost no effect))
- herbicidal effect on R: persian speedwell [20]: 0 (Herbicidal rate of 5% or less (almost no effect))
- herbicidal effect on I: wild oat [21]: 0 (Herbicidal rate of 5% or less (almost no effect))
- herbicidal effect on Q: false cleavers [22]: 0 (Herbicidal rate of 5% or less (almost no effect))
- Herbicidal effect on B: Japanese bulrush (grade 0-5) [23]: 0 (Herbicidal rate of 5% or less (almost no effect))
- G: green foxtail, herbicidal effect (criteria 0-5) [24]: 5 (Herbicidal rate of 90% or more (almost completely withered))
- F: southern crabgrass, herbicidal effect (criteria 0-5) [25]: 5 (Herbicidal rate of 90% or more (almost completely withered))
- herbicidal effect on L: windgrass [26]: 0 (Herbicidal rate of 5% or less (almost no effect))
- herbicidal effect on E: rice flat sedge [27]: 4 (Herbicidal rate of 70% or more and less than 90%)
- herbicidal effect on G: green foxtail [28]: 0 (Herbicidal rate of 5% or less (almost no effect))
- herbicidal effect on F: southern crabgrass [29]: 0 (Herbicidal rate of 5% or less (almost no effect))
- K: Italian ryegrass, herbicidal effect (criteria 0-5) [30]: 4 (Herbicidal rate of 70% or more and less than 90%)
- herbicidal effect on O: lambsquarters [31]: 0 (Herbicidal rate of 5% or less (almost no effect))
